Series [1] has as its system A549 cells. The note with it: A549, 24 h.
Description: Control cells were treated with vehicle only. At 24 h, the media was collected and the cells were washed with PBS. The PBS washing was collected and the attached cells were then subjected to 0.5× trypsin (diluted with PBS) for 2 min. All media and washings were collected, pelleted by centrifugation (3 min @ 300 g) and washed twice with cold PBS. […] After this, 100 μL of cell suspension was added to 1.5 mL centrifuge tubes, followed by 5 μL each of Annexin V-FITC and propidium iodide (PI, 50 μg/mL) solution. Control samples of unstained cells, cells stained with only Annexin V-FITC, and cells stained with only PI were also prepared. Samples were allowed to incubate in the dark for 15 min at ambient temperature. After incubation, each sample was diluted with 200 μL of Annexin V binding buffer, and the resulting 300 μL sample was added to one well of a 96-well plate. Samples were then subjected to FACS analysis using a Millipore Guava easyCyte 8 and analyzed using Guava inCyte software.
For a further series, the system named is PC-3 prostate (p53 null). Briefly: Cell proliferation (MTT) assay in PC-3 prostate cells. The series is classed as cell-based. The settings on record: Table 3; error is standard error of the mean. The method, then: (§1) Further anti-proliferation studies were carried out with complex 1 and its naphthoquinone component 4[H][Cl] using the following cell lines: A2780 ovarian (a wt-p53 cell line sensitive to platinum treatment), 2780CP ovarian (isogenic to A2780 but expressing multi-drug resistance (MDR)), and PC-3 prostate (p53 null) (Table 3).
(§2) Cells were harvested and seeded into 96-well culture plates (Costar 07-200-90) in 100 μL of culture media. They were allowed to incubate overnight at 37° C. in the presence of 5% CO2. A549 was seeded at a density of 1000 cells/well, A2780 at 2500 cells/well, A2780CP at 3000 cells/well, and PC-3 at 2000 cells/well. The next day, appropriate serial dilutions of drug stocks in culture media were made. To each well of a 96 well plate was added 100 μL of the appropriate solution. After a total of three days, a […] aliquot of 3 mg/mL tetrazolium dye, 344,5-dimethylthiazol-2-yl)-2,5-diphenyltetrazolium bromide (Alfa Aesar L11939) was added to each well, followed by a 4 hr incubation period at 37° C. The medium was then removed, the resulting formazan was dissolved in […] DMSO and the respective absorbances were measured at 560-650 nm using a microplate reader (Molecular Devices, Sunnyvale, Calif.). Absorbance values were corrected for background and then normalized to wells containing untreated cells to allow for plate-to-plate comparisons. […]

The next series deals with A549 lung cancer cells. Kind of series: ICP-MS detection of intracellular Au (cellular uptake). The settings on record: A549 cells, in words. As to the method:
Roughly 7−8×10^6 cells were grown to 70-80% confluence in T-75 cell culture flasks (Thermo 130190) and treated with respective compound in RPMI medium supplemented with 10% FBS and antibiotics for the desired incubation time. The medium was then removed and cells were washed with 8 mL 1× warm PBS. 2 mL 1×PBS was then added to each flask, and the cells were removed by scraping. Each cell suspension was then pipetted into a clean, labeled 15 mL centrifuge tube (Thermo 339650). Cells were pelleted by centrifuging at 1,000 rpm for 5 min in an Eppendorf 5804 with a swing-bucket rotor. The supernatant was removed by vacuum aspiration, and the pellet was resuspended in 50 μL autoclaved deionized water. Suspension/lysates were then kept at −80° C. until further use. After thawing, the lysates were then sonicated using a Branson Digital Sonifier, and 5 μL aliquots were taken for determination of protein content of the sample. Lysates were digested with 80 μL aqua regia and heated to 65° C. for 1 h. Digested lysates were diluted with 4 mL 3% Trace Metal Grade HCl and gold content was measured on a Perkin Elmer NexION 300× set to detect gold at 197 m/z. Gold concentrations were quantified using the linear range of a standard curve generated by serial dilution of an ICP-MS gold standard (Ricca MSAU1KH-100) in 3% HCl. Values were then normalized to protein content as determined using a Modified Lowry Protein Assay Kit (Thermo 23240) and known concentrations of bovine serum albumin (Fisher 9048-46-8).
The Modified Lowry Assay was used to determine the protein content of each sample for normalization purposes. The standard curve for each run was made from a 2-fold serial dilution of fresh 5 mg/mL BSA solution. Aliquots were diluted to within the linear range of the standard curve using autoclaved DI water, and subjected to the Modified Lowry Assay in round-bottomed 96-well clear plates (Fisher 12565500). […] All other aspects of the procedure were as detailed in the microplate procedure instructions that come with the kit.

For series [2], the system named is A2780 ovarian (wt-p53, platinum sensitive). Kind of series: Cell proliferation (MTT) assay in A2780 ovarian cells. The series is classed as cell-based. The settings on record: Table 3; error is standard error of the mean. As to the method: as §1, §2
In series [3] the test system is A549 cells. Kind of series: Detection of intracellular ROS by flow cytometry (CM-H2DCFDA). The series is classed as cell-based, human. The settings on record: A549, 2.5 μM, 6 h incubation. The method, then: To establish whether or not the complexes of this disclosure would increase intracellular ROS levels, A549 cells were treated with each complex in a dose responsive manner.
Tumor cells (1×10^6) were plated in a 6-well plate overnight and then incubated with media containing various complexes described at concentrations of 0.625-2.5 μM. Control cells were treated with vehicle only. After a 6 h. incubation, the cells were washed with PBS, detached with 0.250 mL 1× trypsin, collected in a 15 mL conical tube, and pelleted by centrifugation (3 min @ 300 g) at 5° C. The resulting pellet was again washed 2× with cold PBS and pelleted at 5° C. […] The cells were then pelleted, washed with 2 mL PBS, and re-suspended in PBS containing 2 μg/mL propidium iodide (PI, Chemodex P0023) for a final cell concentration of 0.5×10^6 cells/mL. Control samples of unstained cells, cells stained with only CM-H2DCFDA, and cells stained with only PI were also prepared. Each sample was added to one well of a 96-well plate. Samples were then subjected to FACS analysis using a Millipore Guava easyCyte 8 and analyzed using the Guava inCyte software.

For `Cc1cc(C)c(-n2c3c([n+](-c4c(C)cc(C)cc4C)[c]2[Au-][c]2n(-c4c(C)cc(C)cc4C)c4c([n+]2-c2c(C)cc(C)cc2C)C(=O)c2ccccc2C4=O)C(=O)c2ccccc2C3=O)c(C)c1.[Cl][Ag-][Cl]` [Compound 1, [Bis(1,3-dimesityl-4,5-naphthoquino-imidazol-2-ylidene)-gold(I)] [Silver(I)dichloride]], the “induction of apoptosis (annexin-V/PI)” value in the series with A549 cells [1] is “induces controlled cell death via an apoptotic mechanism”. In addition, the values for the IC50 (in the series on PC-3 prostate (p53 null); in series [2]) were 96 ± 17 nM and 26 ± 7 nM, respectively. Moreover, the “intracellular Au levels (ICP-MS)” value with A549 lung cancer cells is given as “identical”. In addition, the “fluorescence associated cell population shift (intracellular ROS increase)” value in the series on A549 cells [3] came to 27 fold.

The values above are taken from US11332483B2, “Naphthoquinone containing gold carbene complexes and methods of uses thereof” (BOARD OF REGENTS, THE UNIVERSITY OF TEXAS SYSTEM, priority 2017, dated 2022).
